Tested on: 883617-216-R-J1-PDC complex spheroid viability
Assay: Anticancer human tumor 883617-216-R-J1-PDC patient-derived bladder carcinoma cell line growth inhibition [POLQ]
Details: for IC50: curve of first compound; for viability, T/C: stronger effect = lower value
Method: Multicellular complex tumor spheroid response to Polymerase (POL) inhibitors (novobiocin, ART-558, RP6685) in combination with a variety of drugs and investigational agents in selected tumor cell lines
The POL inhibitors (novobiocin, ART-558, and RP6685) were evaluated both individually and in combination with standard of care and investigational anticancer small molecules within a complex spheroid model of solid tumors. . Complex spheroids include a stromal component modeled by human endothelial cells (HUVEC) and fibroblasts modeled by human mesenchymal stem cells (MSCs). The concentration ranges selected for each drug and investigational agent were based upon clinically achievable concentrations if the clinical Cmax of the agent was known.
Compounds. The drugs and investigational agents: novobiocin (NSC847541), ART-558 (NSC835418), RP-6685 (NSC848927), peposertib (NSC802822), ceralasertib (NSC780249), elimusertib (NSC800525), camonsertib (NSC841442), AZD-1390 (NSC803789), olaparib (NSC753686), talazoparib (NSC767125), rucaparib (NSC756644), sotorasib (NSC818433), MRTX-1133 (NSC836407), SN-38 (NSC673596), topotecan (NSC609699), epotoside (NSC141540), doxorubicin (NSC123127), gemcitabine (NSC613327), 5-fluorouracil (NSC19893), paclitaxel (NSC125973), vemurafenib (NSC761431), MSA-2 (NSC828583), SN-011 (NSC837082), adavosertib (NSC754352), prexasertib (NSC758257), carboplatin (NSC241240) and oxaliplatin (NSC266046), were obtained from the National Cancer Institute (NCI) Developmental Therapeutics Program Chemical Repository (21). The FDA-approved anticancer drug set is available from the Developmental Therapeutics Program at https://dtp.cancer.gov/organization/dscb/obtaining/. […] The stock solutions were prepared in dimethyl sulfoxide (DMSO, Sigma-Aldrich, St. Louis, MO, cat. D2650), except for the platinum compounds which were prepared in saline (Quality Biological, Gaithersburg, MD, cat. 114-055-101), at 800-fold the tested concentration and stored at -70 degrees C prior to their use. All drugs and investigational agents were tested over a range starting from a high concentration at or near the clinical Cmax and decreasing in half-log increments. If the clinical Cmax for an agent had not been determined, the highest concentration tested was 10 microM, except for SN-38, which was tested at a high concentration of 1 microM.
Cell Culture. All cells were maintained in an incubator at 37 degrees C and 5% CO2 with 95% humidity. The PDC lines were cultured according to standard operating procedures established by the NCI PDMR (https://pdmr.cancer.gov). Table 3 of the manuscript, lists the cell lines along with the number of the three cell types plated to form the mct-spheroids and media for tumor cell growth. After thawing, all PDC lines, except 997537-175-T-J1-PDC and 415267-285-R-J2-PDC, were cultured in Matrigel-coated flasks prepared with a working solution of 1X Ham's F-12 nutrient mix, without supplementation (Thermo Fisher Scientific, cat. 11765054), 100 U/mL penicillin-streptomycin (Thermo Fisher Scientific, cat. 15140122), and 2.5% Matrigel (Corning Inc., Corning, NY, cat. 354248) for the first three passages. The two PDC lines 997537-175-T-J1-PDC and 415267-285-R-J2-PDC were cultured on uncoated flasks. The 857933-349-R-J2-PDC line was cultured in 6C/Colon 1B media containing advanced DMEM/F-12 (Thermo Fisher Scientific, cat. 12634028), 10 mM HEPES (Thermo Fisher Scientific, cat. 15630080), 1X GlutaMAX supplement (Thermo Fisher Scientific, cat. 35050061), 0.1 mg/mL primocin (InvivoGen, San Diego, CA, cat. ant-pm-2), 10% defined fetal bovine serum, heat inactivated (HyClone Laboratories Inc., Logan, UT, cat. SH30070.03HI), 50% L-WRN conditioned media (ATCC, cat. CRL-3276), 1.25 mM N-Acetyl-L-cysteine (Sigma-Aldrich, cat. A9165), 10 mM nicotinamide (Sigma-Aldrich, cat. N0636), 1X B-27 supplement (Thermo Fisher Scientific, cat. 17504044), 1X N-2 supplement (Thermo Fisher Scientific, cat. […]

[1] = second compound 0.0316 µM, first compound 0.0316 µM
[2] = second compound 0.0316 µM, first compound 0.1 µM
[3] = second compound 0.0316 µM, first compound 0.316 µM
[4] = second compound 0.0316 µM, first compound 1 µM
[5] = second compound 0.0316 µM, first compound 3.16 µM
[6] = second compound 0.0316 µM, first compound 10 µM
[7] = second compound 0.1 µM, first compound 0.0316 µM
[8] = second compound 0.1 µM, first compound 0.1 µM
[9] = second compound 0.1 µM, first compound 0.316 µM
[10] = second compound 0.1 µM, first compound 1 µM
[11] = second compound 0.1 µM, first compound 3.16 µM
[12] = second compound 0.1 µM, first compound 10 µM
[13] = second compound 0.316 µM, first compound 0.0316 µM
[14] = second compound 0.316 µM, first compound 0.1 µM
[15] = second compound 0.316 µM, first compound 0.316 µM
[16] = second compound 0.316 µM, first compound 1 µM
[17] = second compound 0.316 µM, first compound 3.16 µM
[18] = second compound 0.316 µM, first compound 10 µM
[19] = second compound 1 µM, first compound 0.0316 µM
[20] = second compound 1 µM, first compound 0.1 µM
[21] = second compound 1 µM, first compound 0.316 µM
[22] = second compound 1 µM, first compound 1 µM
[23] = second compound 1 µM, first compound 3.16 µM
[24] = second compound 1 µM, first compound 10 µM
[25] = second compound 3.16 µM, first compound 0.0316 µM
[26] = second compound 3.16 µM, first compound 0.1 µM
[27] = second compound 3.16 µM, first compound 0.316 µM
[28] = second compound 3.16 µM, first compound 1 µM
[29] = second compound 3.16 µM, first compound 3.16 µM
[30] = second compound 3.16 µM, first compound 10 µM
[31] = second compound 10 µM, first compound 0.0316 µM
[32] = second compound 10 µM, first compound 0.1 µM
[33] = second compound 10 µM, first compound 0.316 µM
[34] = second compound 10 µM, first compound 1 µM
[35] = second compound 10 µM, first compound 3.16 µM
[36] = second compound 10 µM, first compound 10 µM
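Also: spheroids exposed to compounds for seven days before readout.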
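For viability, T/C in this document: 100% = DMSO vehicle control viability.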

## C#Cc1c(F)ccc2cc(O)cc(-c3ncc4c(N5CC6CCC(C5)N6)nc(OCC56CCCN5CC(F)C6)nc4c3F)c12 (stereo unspecified) + Nc1ccc(C#CCN(C(=O)Cc2ncc(C(F)(F)F)cc2C(F)(F)F)c2ccc(F)cc2)nn1
Second compound 0.0316 µM
  IC50: > 10 µM
Second compound 0.1 µM
  IC50: > 10 µM
Second compound 0.316 µM
  IC50: > 10 µM
Second compound 1 µM
  IC50: > 10 µM
Second compound 3.16 µM
  IC50: > 10 µM
Second compound 10 µM
  IC50: > 10 µM
[1]
  viability, T/C: 82%
[2]
  viability, T/C: 92.8%
[3]
  viability, T/C: 97.7%
[4]
  viability, T/C: 90.3%
[5]
  viability, T/C: 71.7%
[6]
  viability, T/C: 75.1%
[7]
  viability, T/C: 100%
[8]
  viability, T/C: 98.5%
[9]
  viability, T/C: 90.6%
[10]
  viability, T/C: 93.7%
[11]
  viability, T/C: 93%
[12]
  viability, T/C: 81%
[13]
  viability, T/C: 86.8%
[14]
  viability, T/C: 84.2%
[15]
  viability, T/C: 87.8%
[16]
  viability, T/C: 78.7%
[17]
  viability, T/C: 82.1%
[18]
  viability, T/C: 84.8%
[19]
  viability, T/C: 108%
[20]
  viability, T/C: 87.7%
[21]
  viability, T/C: 84.7%
[22]
  viability, T/C: 77.9%
[23]
  viability, T/C: 82.2%
[24]
  viability, T/C: 80.1%
[25]
  viability, T/C: 91.1%
[26]
  viability, T/C: 89.7%
[27]
  viability, T/C: 89.1%
[28]
  viability, T/C: 101%
[29]
  viability, T/C: 102%
[30]
  viability, T/C: 88.1%
[31]
  viability, T/C: 102%
[32]
  viability, T/C: 109%
[33]
  viability, T/C: 113%
[34]
  viability, T/C: 108%
[35]
  viability, T/C: 99.3%
[36]
  viability, T/C: 102%

## C=CC(=O)N1CCN(c2nc(=O)n(-c3c(C)ccnc3C(C)C)c3nc(-c4c(O)cccc4F)c(F)cc23)C(C)C1 (stereo unspecified) + Nc1ccc(C#CCN(C(=O)Cc2ncc(C(F)(F)F)cc2C(F)(F)F)c2ccc(F)cc2)nn1
Second compound 0.0316 µM
  IC50: > 10 µM
Second compound 0.1 µM
  IC50: > 10 µM
Second compound 0.316 µM
  IC50: > 10 µM
Second compound 1 µM
  IC50: > 10 µM
Second compound 3.16 µM
  IC50: > 10 µM
Second compound 10 µM
  IC50: > 10 µM
[1]
  viability, T/C: 71.3%
[2]
  viability, T/C: 69.1%
[3]
  viability, T/C: 67.8%
[4]
  viability, T/C: 82.7%
[5]
  viability, T/C: 82.3%
[6]
  viability, T/C: 83.9%
[7]
  viability, T/C: 63.3%
[8]
  viability, T/C: 72.8%
[9]
  viability, T/C: 64.7%
[10]
  viability, T/C: 72%
[11]
  viability, T/C: 81.9%
[12]
  viability, T/C: 88.2%
[13]
  viability, T/C: 68.5%
[14]
  viability, T/C: 64.8%
[15]
  viability, T/C: 61.8%
[16]
  viability, T/C: 72.5%
[17]
  viability, T/C: 77.3%
[18]
  viability, T/C: 73.4%
[19]
  viability, T/C: 61.4%
[20]
  viability, T/C: 57.2%
[21]
  viability, T/C: 71.7%
[22]
  viability, T/C: 78.3%
[23]
  viability, T/C: 75.8%
[24]
  viability, T/C: 91.2%
[25]
  viability, T/C: 60.4%
[26]
  viability, T/C: 67.2%
[27]
  viability, T/C: 71.5%
[28]
  viability, T/C: 70.6%
[29]
  viability, T/C: 77.8%
[30]
  viability, T/C: 91%
[31]
  viability, T/C: 64.5%
[32]
  viability, T/C: 63.8%
[33]
  viability, T/C: 73.9%
[34]
  viability, T/C: 77.2%
[35]
  viability, T/C: 91.1%
[36]
  viability, T/C: 72.1%

## CC(C)n1c(=O)n(C)c2cnc3cc(F)c(-c4ccc(OCCCN5CCCCC5)nc4)cc3c21 + Nc1ccc(C#CCN(C(=O)Cc2ncc(C(F)(F)F)cc2C(F)(F)F)c2ccc(F)cc2)nn1
Second compound 0.0316 µM
  IC50: > 10 µM
Second compound 0.1 µM
  IC50: > 10 µM
Second compound 0.316 µM
  IC50: > 10 µM
Second compound 1 µM
  IC50: > 10 µM
Second compound 3.16 µM
  IC50: > 10 µM
Second compound 10 µM
  IC50: > 10 µM
[1]
  viability, T/C: 95.3%
[2]
  viability, T/C: 94.5%
[3]
  viability, T/C: 96%
[4]
  viability, T/C: 108%
[5]
  viability, T/C: 82.6%
[6]
  viability, T/C: 75.6%
[7]
  viability, T/C: 95.7%
[8]
  viability, T/C: 114%
[9]
  viability, T/C: 87.6%
[10]
  viability, T/C: 100%
[11]
  viability, T/C: 95%
[12]
  viability, T/C: 69.8%
[13]
  viability, T/C: 112%
[14]
  viability, T/C: 89.5%
[15]
  viability, T/C: 98.9%
[16]
  viability, T/C: 119%
[17]
  viability, T/C: 80.8%
[18]
  viability, T/C: 73.8%
[19]
  viability, T/C: 108%
[20]
  viability, T/C: 104%
[21]
  viability, T/C: 113%
[22]
  viability, T/C: 104%
[23]
  viability, T/C: 92.2%
[24]
  viability, T/C: 72.7%
[25]
  viability, T/C: 101%
[26]
  viability, T/C: 95.7%
[27]
  viability, T/C: 104%
[28]
  viability, T/C: 98%
[29]
  viability, T/C: 98.3%
[30]
  viability, T/C: 76.4%
[31]
  viability, T/C: 117%
[32]
  viability, T/C: 121%
[33]
  viability, T/C: 120%
[34]
  viability, T/C: 103%
[35]
  viability, T/C: 109%
[36]
  viability, T/C: 81.8%
